Assay results as given in patent publication US10722514B2 (FLX Bio, Inc., priority 2017, dated 2020).
Like-named read-outs stand apart in the source and are kept apart here.

Molecular target: T1, recombinant full-length USP7 (Homo sapiens, UniProt Q93009)
T1 construct: A 25 μl reaction volume containing recombinant full-length USP7 (62 pM)
Test: USP7-mediated ubiquitin-rhodamine cleavage assay
Type: biochemical
Details: recombinant full-length USP7 62 pM, ubiquitin-rhodamine 100 nM, 1 hour reaction at room temperature, read-out: Potency (USP7 IC50)
Summary of the method: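 Enzyme 62 pM; HEPES pH 7.3/150 mM NaCl/1 mM TCEP/125 μg/ml BSA; 1% DMSO; 30 min cpd preinc RT; Ub-rhodamine 100 nM, 1 h RT, dark; acetic acid stop; fluorescence; IC50 4-param fit.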

T1 sequence (Q93009 whole entry): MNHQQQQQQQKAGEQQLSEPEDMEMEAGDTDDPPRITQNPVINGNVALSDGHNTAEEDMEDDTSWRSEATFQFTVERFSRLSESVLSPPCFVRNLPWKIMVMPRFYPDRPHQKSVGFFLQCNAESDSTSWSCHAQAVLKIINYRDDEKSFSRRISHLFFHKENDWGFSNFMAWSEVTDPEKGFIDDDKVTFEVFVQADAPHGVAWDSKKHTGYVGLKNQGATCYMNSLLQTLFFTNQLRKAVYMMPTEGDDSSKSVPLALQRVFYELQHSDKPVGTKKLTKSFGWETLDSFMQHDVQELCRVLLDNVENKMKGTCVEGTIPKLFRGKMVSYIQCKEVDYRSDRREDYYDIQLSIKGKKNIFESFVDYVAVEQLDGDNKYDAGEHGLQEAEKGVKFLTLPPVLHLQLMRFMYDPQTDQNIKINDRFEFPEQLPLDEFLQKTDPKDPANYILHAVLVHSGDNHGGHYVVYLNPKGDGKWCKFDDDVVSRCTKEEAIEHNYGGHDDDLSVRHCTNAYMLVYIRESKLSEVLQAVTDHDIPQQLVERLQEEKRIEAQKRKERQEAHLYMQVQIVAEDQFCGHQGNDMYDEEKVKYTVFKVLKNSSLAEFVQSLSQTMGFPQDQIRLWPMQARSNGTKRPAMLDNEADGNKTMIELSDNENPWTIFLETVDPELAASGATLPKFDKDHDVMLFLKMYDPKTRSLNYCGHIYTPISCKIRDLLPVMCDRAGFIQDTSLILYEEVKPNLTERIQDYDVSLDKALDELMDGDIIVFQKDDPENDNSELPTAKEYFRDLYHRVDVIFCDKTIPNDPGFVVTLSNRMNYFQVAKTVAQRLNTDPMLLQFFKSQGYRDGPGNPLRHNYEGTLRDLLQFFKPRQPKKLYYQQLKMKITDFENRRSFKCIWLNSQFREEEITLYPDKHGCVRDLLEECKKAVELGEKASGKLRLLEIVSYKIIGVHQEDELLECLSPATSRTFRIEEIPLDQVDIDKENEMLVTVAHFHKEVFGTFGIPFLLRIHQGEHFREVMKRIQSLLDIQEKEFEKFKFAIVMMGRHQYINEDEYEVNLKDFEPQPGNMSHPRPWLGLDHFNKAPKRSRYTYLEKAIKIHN

SMILES	IC50 (30-minute pre-incubation) [nM]	IC50 (30-minute incubation) [nM]
Cc1cc(Cl)cc(-c2ccnc3cc(Cn4c(=O)ccn(CC(F)(F)F)c4=O)sc23)c1O[C@H]1CCCN(C(=O)C(F)(F)F)C1 [Example 659, 3-[[7-[5-chloro-3-methyl-2-[[(3S)-1-(2,2,-trifluoroacetyl)-3-piperidyl]oxy]phenyl]thieno[3,2-b]pyridin-2-yl]methyl]-1-(2,2,2-trifluoroethyl)pyrimidine-2,4-dione]	< 1000	
CC(=O)N1CCC[C@H](Oc2c(C)cc(Cl)cc2-c2ccnc3cc(Cn4c(=O)ccn(CC(F)(F)F)c4=O)sc23)C1 [Example 660, 3-[[7-[2-[[(3S)-1-acetyl-3-piperidyl]oxy]-5-chloro-3-methyl-phenyl]thieno[3,2-b]pyridin-2-yl]methyl]-1-(2,2,2-trifluoroethyl)pyrimidine-2,4-dione]	< 1000	
Cc1cc(Cl)cc(-c2ccnc3cc(Cn4c(=O)ccn(CC(F)(F)F)c4=O)sc23)c1OCCN1CCCC1 [Example 661, 3-[[7-[5-chloro-3-methyl-2-(2-pyrrolidin-1-ylethoxy)phenyl]thieno[3,2-b]pyridin-2-yl]methyl]-1-(2,2,2-trifluoroethyl)pyrimidine-2,4-dione; 2,2,2-trifluoroacetic acid]	< 1000	
Cc1cc(Cl)cc(-c2ccnc3cc(Cn4c(=O)ccn(CC(F)(F)F)c4=O)sc23)c1OCCN1CCOCC1 [Example 662, 3-[[7-[5-chloro-3-methyl-2-(2-morpholinoethoxy)phenyl]thieno[3,2-b]pyridin-2-yl]methyl]-1-(2,2,2-trifluoroethyl)pyrimidine-2,4-dione; 2,2,2-trifluoroacetic acid]	< 1000	
Cc1cc(Cl)cc(-c2ccnc3cc(Cn4c(=O)ccn(CC(F)(F)F)c4=O)sc23)c1OC1(C)CCNC1 (centres unmarked) [Example 663, 3-[[7-[5-chloro-3-methyl-2-(3-methylpyrrolidin-3-yl)oxy-phenyl]thieno[3,2-b]pyridin-2-yl]methyl]-1-(2,2,2-trifluoroethyl)pyrimidine-2,4-dione]	< 1000	
Cc1cc(Cl)cc(-c2ccnc3cc(Cn4c(=O)ccn(CC(F)(F)F)c4=O)sc23)c1OC1CCCC1 [Example 664, 3-[[7-[5-chloro-2-(cyclopentoxy)-3-methyl-phenyl]thieno[3,2-b]pyridin-2-yl]methyl]-1-(2,2,2-trifluoroethyl)pyrimidine-2,4-dione]	< 1000	
Cc1cc(Cl)cc(-c2ccnc3cc(Cn4c(=O)ccn(CC(F)(F)F)c4=O)sc23)c1OC1CCCCC1 [Example 665, 3-[[7-[5-chloro-2-(cyclohexoxy)-3-methyl-phenyl]thieno[3,2-b]pyridin-2-yl]methyl]-1-(2,2,2-trifluoroethyl)pyrimidine-2,4-dione]	< 1000	
Cc1cc(Cl)cc(-c2ccnc3cc(Cn4c(=O)ccn(CC(F)(F)F)c4=O)sc23)c1OCCN1CCCCC1 [Example 666, 3-[[7-[5-chloro-3-methyl-2-[2-(1-piperidyl)ethoxy]phenyl]thieno[3,2-b]pyridin-2-yl]methyl]-1-(2,2,2-trifluoroethyl)pyrimidine-2,4-dione]	< 1000	
Cc1cc(Cl)cc(-c2ccnc3cc(Cn4c(=O)ccn(CC(F)(F)F)c4=O)sc23)c1OC1CC(N2CCC(F)(F)CC2)C1 (centres unmarked) [Example 668, 3-[[7-[5-chloro-2-[3-(4,4-difluoro-1-piperidyl)cyclobutoxy]-3-methyl-phenyl]thieno[3,2-b]pyridin-2-yl]methyl]-1-(2,2,2-trifluoroethyl)pyrimidine-2,4-dione; 2,2,2-trifluoroacetic acid]	< 1000	
Cc1cc(Cl)cc(-c2ccnc3cc(Cn4c(=O)ccn(CC(F)(F)F)c4=O)sc23)c1OCC1COC1 [Example 669, 3-[[7-[5-chloro-3-methyl-2-(oxetan-3-ylmethoxy)phenyl]thieno[3,2-b]pyridin-2-yl]methyl]-1-(2,2,2-trifluoroethyl)pyrimidine-2,4-dione]	< 1000	
Cc1cc(Cl)cc(-c2ccnc3cc(Cn4c(=O)ccn(CC(F)(F)F)c4=O)sc23)c1OC1CCOCC1 [Example 670]		< 1000
Cc1cc(Cl)cc(-c2ccnc3cc(Cn4c(=O)ccn(CC(F)(F)F)c4=O)sc23)c1OC1COC1 [Example 671, 3-[[7-[5-chloro-3-methyl-2-(oxetan-3-yloxy)phenyl]thieno[3,2-b]pyridin-2-yl]methyl]-1-(2,2,2-trifluoroethyl)pyrimidine-2,4-dione]		< 1000
Cc1cc(Cl)cc(-c2ccnc3cc(Cn4c(=O)ccn(CC(F)(F)F)c4=O)sc23)c1OC1CC(N2CCC(O)C2)C1 (centres unmarked) [Example 672, 3-[[7-[5-chloro-2-[3-(3-hydroxypyrrolidin-1-yl)cyclobutoxy]-3-methyl-phenyl]thieno[3,2-b]pyridin-2-yl]methyl]-1-(2,2,2-trifluoroethyl)pyrimidine-2,4-dione; 2,2,2-trifluoroacetic acid]		< 1000
Cc1cc(Cl)cc(-c2ccnc3cc(Cn4c(=O)ccn(CC(F)(F)F)c4=O)sc23)c1OCC1(C(F)F)CNC1 [Example 673, 3-[[7-[5-chloro-2-[[3-(difluoromethyl)azetidin-3-yl]methoxy]-3-methyl-phenyl]thieno[3,2-b]pyridin-2-yl]methyl]-1-(2,2,2-trifluoroethyl)pyrimidine-2,4-dione]		< 1000
COC1CCC(Oc2c(C)cc(Cl)cc2-c2ccnc3cc(Cn4c(=O)ccn(CC(F)(F)F)c4=O)sc23)CC1 (centres unmarked) [Example 674, 3-[[7-[5-chloro-2-(4-methoxycyclohexoxy)-3-methyl-phenyl]thieno[3,2-b]pyridin-2-yl]methyl]-1-(2,2,2-trifluoroethyl)pyrimidine-2,4-dione]		< 1000
Cc1cc(Cl)cc(-c2ccnc3cc(Cn4c(=O)ccn(CC(F)(F)F)c4=O)sc23)c1OC1CC(N2C[C@@H]3C[C@H]2CO3)C1 (stereo partly drawn) [Example 675, 3-[[7-[5-chloro-3-methyl-2-[3-[(1S,4S)-2-oxa-5-azabicyclo[2.2.1]heptan-5-yl]cyclobutoxy]phenyl]thieno[3,2-b]pyridin-2-yl]methyl]-1-(2,2,2-trifluoroethyl)pyrimidine-2,4-dione]		< 1000
Cc1cc(Cl)cc(-c2ccnc3cc(Cn4c(=O)ccn(CC(F)(F)F)c4=O)sc23)c1OC1CC(N2[C@@H]3CC[C@H]2COC3)C1 (stereo partly drawn) [Example 676, 3-[[7-[5-chloro-3-methyl-2-[3-[(1R,5S)-3-oxa-8-azabicyclo[3.2.1]octan-8-yl]cyclobutoxy]phenyl]thieno[3,2-b]pyridin-2-yl]methyl]-1-(2,2,2-trifluoroethyl)pyrimidine-2,4-dione]		< 1000
Cc1cc(Cl)cc(-c2ccnc3cc(Cn4c(=O)ccn(CC(F)(F)F)c4=O)sc23)c1OC1CCC(O)CC1 (centres unmarked) [Example 677, 3-[[7-[5-chloro-2-(4-hydroxycyclohexoxy)-3-methyl-phenyl]thieno[3,2-b]pyridin-2-yl]methyl]-1-(2,2,2-trifluoroethyl)pyrimidine-2,4-dione]		< 1000
Cc1cc(Cl)cc(-c2ccnc3cc(Cn4c(=O)ccn(CC(F)(F)F)c4=O)sc23)c1OC1CC(O)C1 (centres unmarked) [Example 678, 3-[[7-[5-chloro-2-(3-hydroxycyclobutoxy)-3-methyl-phenyl]thieno[3,2-b]pyridin-2-yl]methyl]-1-(2,2,2-trifluoroethyl)pyrimidine-2,4-dione]		< 1000
Cc1cc(Cl)cc(-c2ccnc3cc(Cn4c(=O)ccn(CC(F)(F)F)c4=O)sc23)c1OC1CC2(COC2)C1 [Example 679, 3-[[7-[5-chloro-3-methyl-2-(2-oxaspiro[3.3]heptan-6-yloxy)phenyl]thieno[3,2-b]pyridin-2-yl]methyl]-1-(2,2,2-trifluoroethyl)pyrimidine-2,4-dione]		< 1000
Cc1cc(Cl)cc(-c2ccnc3cc(Cn4c(=O)ccn(CC(F)(F)F)c4=O)sc23)c1OC1CCS(=O)(=O)CC1 [Example 680, 3-[[7-[5-chloro-2-(1,1-dioxoothian-4-yl)oxy-3-methyl-phenyl]thieno[3,2-b]pyridin-2-yl]methyl]-1-(2,2,2-trifluoroethyl)pyrimidine-2,4-dione]		< 1000
Cc1cc(Cl)cc(-c2ccnc3cc(Cn4c(=O)ccn(CC(F)(F)F)c4=O)sc23)c1Oc1ccncc1 [Example 681, 3-[[7-[5-chloro-3-methyl-2-(4-pyridyloxy)phenyl]thieno[3,2-b]pyridin-2-yl]methyl]-1-(2,2,2-trifluoroethyl)pyrimidine-2,4-dione; 2,2,2-trifluoroacetic acid]		< 1000
Cc1cc(Cl)cc(-c2ccnc3cc(Cn4c(=O)ccn(CC(F)(F)F)c4=O)sc23)c1OC1CCC(F)(F)CC1 [Example 682, 3-[[7-[5-chloro-2-(4,4-difluorocycllohexoxy)-3-methyl-phenyl]thieno[3,2-b]pyridin-2-yl]methyl]-1-(2,2,2-trifluoroethyl)pyrimidine-2,4-dione]		< 1000
Cc1cc(Cl)cc(-c2ccnc3cc(Cn4c(=O)ccn(CC(F)(F)F)c4=O)sc23)c1OC1CCC1 [Example 683, 3-[[7-[5-chloro-2-(cyclobutoxy)-3-methyl-phenyl]thieno[3,2-b]pyridin-2-yl]methyl]-1-(2,2,2-trifluoroethyl)pyrimidine-2,4-dione]		< 1000
COC1CCN(C2CC(Oc3c(C)cc(Cl)cc3-c3ccnc4cc(Cn5c(=O)ccn(CC(F)(F)F)c5=O)sc34)C2)C1 (centres unmarked) [Example 684, 3-[[7-[5-chloro-2-[3-(3-methoxypyrrolidin-1-yl)cyclobutoxy]-3-methyl-phenyl]thieno[3,2-b]pyridin-2-yl]methyl]-1-(2,2,2-trifluoroethyl)pyrimidine-2,4-dione; 2,2,2-trifluoroacetic acid]		< 1000
Cc1cc(Cl)cc(-c2ccnc3cc(Cn4c(=O)ccn(CC(F)(F)F)c4=O)sc23)c1OC1CC(N2CCC(F)C2)C1 (centres unmarked) [Example 685, 3-[[7-[5-chloro-2-[3-(3-fluoropyrrolidin-1-yl)cyclobutoxy]-3-methyl-phenyl]thieno[3,2-b]pyridin-2-yl]methyl]-1-(2,2,2-trifluoroethyl)pyrimidine-2,4-dione; 2,2,2-trifluoroacetic acid]		< 1000
